From patent US5350677A, “Method of assaying phosphatase with 3,4-dinitrophenylphosphate” (Iatron Laboratories, Inc., priority 1989, dated 1994)

Key:
[1] = without solubilizing auxiliary agent; cited from earlier work
[2] = Stability (decomposition) of substrate in aqueous solution; assay type: physicochemical

In the case of `CC(=O)N[C@H]1[C@H](Oc2ccc([N+](=O)[O-])cc2Cl)O[C@H](CO)[C@@H](O)[C@@H]1O` [2-chloro-4-nitrophenyl-N-acetyl-β-D-glucosaminide], the “solubility in water” value [1] is listed as “difficult to dissolve in water”.
In the case of `CC(=O)N[C@H]1[C@H](Oc2ccc([N+](=O)[O-])c([N+](=O)[O-])c2)O[C@H](CO)[C@@H](O)[C@@H]1O` [3,4-DNG, 3,4-dinitrophenyl-N-acetyl-β-D-glucosaminide], the decomposition ratio ([2]; enzyme reaction conditions (pH 5, 37° C.) for one hour, 60 min) is reported as 1.5% and the “stability of aqueous solution” value ([2]; under ice-cooling) is reported as “stable”.
